From patent US20240299595A1, “CANCER THERANOSTIC COMPOSITIONS COMPRISING BIGUANIDE COMPLEXES OF GROUP 7 TRANSITION METALS AND USES THEREOF” (BOARD OF REGENTS, THE UNIVERSITY OF TEXAS SYSTEM, priority 2021, published 2024)
Entries after “also recorded” stand apart in the source; their conditions may differ.

Columns and labels:
[1] = system: AMPK; experiment: AMPK and AMPK phosphoprotein western blotting; type: cell-based; conditions: 24 hours
Experimental: R-actin was used as a loading control. Cells were treated with phenformin or Re-Phenformin overnight at the indicated concentrations for 24 hours.
AMPK is a key enzyme that becomes activated under nutrient stress. Annexin V/PI double staining kit was used to detected cell death in flow cytofluorimetric analyses. […] In Kras* cell line, cells died largely of necrosis; in MiaPaca-2 cell line, cells died mostly of apoptosis.

[2] = system: orthotopic Kras* murine PDAC tumor; experiment: Antitumor efficacy, syngeneic Kras* orthotopic PDAC model; type: in vivo, C57BL/6 mice; conditions: 10 daily intraperitoneal injections, 50 mg/kg/injection
Experimental: FIG. 6A outlines an in vivo experiment assessing antitumor activity of Re-Phen against orthotopic Kras* murine PDAC tumor. Male C57BL/6 mice were inoculated in the pancreas with iKrasG12D murine tumor cells. Treatments were initiated on day 7 after tumor cells inoculation. Each mouse received 10 daily intraperitoneal injections of phenformin or Re-Phen at a dose of 50 mg/kg/injection (100 μL/mouse). Control mice received 50/50 (v/v) Cremorphor EL/absolute ethanol, further diluted at 1:4 (v/v) ratio with saline (100 μL/mouse) before injection.
For antitumor efficacy study, the syngeneic Kras* orthotopic PDAC model was used. Kras* PDAC cells established from transgenic mouse model of PDAC with inducible KrasG12D mutation were inoculated into the pancreas of 6-week-old female C57BL/6 mice (Taconic Biosciences, Rensselaer, NY). Treatments were initiated on day 7 after tumor cells inoculation when tumors were ˜5 mm in diameter. Each mouse received 10 daily intraperitoneal injections of phenformin or Re-Phen at a dose of 50 mg/kg/injection (100 μL/mouse) (FIG. 6A). Each drug was formulated in 50/50 (v/v) Cremorphor EL/absolute ethanol, which that was further diluted at 1:4 (v/v) ratio with saline before injection. Animals were weighted daily to record possible adverse effects. Animals were euthanized on day 16 after the last injection. Tumors were harvested and weighted, fixed in formalin, embedded in paraffin, and cut into 4-μm sections. Slides were immunohistochemically stained with the proliferation marker Ki67, counterstained with hematoxylin and visualized under a brightfield microscope at 100× or 200× magnification.

[3] = system: MiaPaca-2 and Kras* cells; experiment: NADH-to-total NAD (NADt) ratio, colorimetric kit; type: cell-based; conditions: 100 μM, 3 hours or 12 hours
Experimental: Data are presented as mean±SD (n=3). *p<0.05; ***p<0.001. Vehicle (DMSO) treated cells were as controls.
Following, PDAC cells were used to measure NADH-to-total NAD (NADt) ratios. NADH-to-total NAD (NADt) ratios were measured using a colorimetric kit (Biovision, Milpitas, CA). Briefly, cells were treated for different time periods as indicated and total NAD (NADt, NAD+NADH) was extracted following manufacturer provided protocol. For each of the extracted samples, half of the sample was heated at 60° C. for 30 minutes to decompose NAD+ while keeping NADH intact. Total NAD+ and NADH level was measured without the heating steps and in the presence of NAD cycling enzyme. The ratio of NADH to NADt were calculated on absorbance measured at 450 nm with a microplate reader (SpectraMax, Molecular Device, San Diego, CA). Cells treated with the same amount of DMSO used to prepare 100 μM phenformin or Re-Phen were used as controls.

[4] = system: PDAC cells; experiment: JC-10 mitochondrial membrane potential assay; type: cell-based; conditions: JC-10 microplate assay kit
Experimental: The fluorescent intensities for J-aggregates (Ex/Em=540/590 nm) and monomeric forms (Ex/Em=490/525 nm) of JC-10 were measured with a microplate reader. Fluorescence intensity ratio measured at 525 nm/590 nm represents the change of mitochondrial membrane potential. Data are presented as mean±SD (n=4). *p<0.05; **p<0.01; ***p<0.001.
(§1) Both Re-Phen and phenformin altered the mitochondrial functions and metabolic state of PDAC cells. The fluorescent intensities for both monomeric forms (Ex/Em=490/525 nm) and J-aggregates (Ex/Em=540/590 nm) of JC-10 change upon mitochondrial membrane polarization. Thus, an increase in the ratio of fluorescence intensities measured at 525 nm (monomeric form) over 590 nm (aggregates) represents a decrease in mitochondrial membrane potential.

[5] = system: MiaPaca-2 PDAC cells; experiment: MTT cytotoxicity, pancreatic cancer cell line MiaPaca-2; type: cell-based; conditions: for IC50: MTT, 72 h
Experimental: To determine cytotoxicity of Re-Phen and Phenformin, different cell lines were exposed to different concentrations of the compounds and their viabilities were followed over time. […] Cell viability was measured using the MTT assay. The absorption at 590 nm was measured with a microplate reader (SpectraMax, Molecular Device, San Diego, CA) to quantify cell numbers. The proportion of cells was normalized to that of untreated cells and expressed as mean±standard error of the mean (SEM) (n=6). The half-maximal inhibitory concentration (IC50) values were calculated by a sigmoidal dose-response (variable slope) curve-fitting using GraphPad Prism software.

[6] = system: Kras*; experiment: MTT cytotoxicity, pancreatic cancer cell line Kras*; type: cell-based, murine; conditions: 72 h
Experimental: (§2) To determine cytotoxicity of Re-Phen and Phenformin, different cell lines were exposed to different concentrations of the compounds and their viabilities were followed over time. Pancreatic cells were seeded in 96-well plates (5000 cells/well) overnight, and treated with Re-Phen (FIG. 13A) or phenformin (FIG. 13B) in concentrations ranging from 4.57×10−4 mM to 1.0 mM at 37° C. for 72 h. Cell viability was measured using the MTT assay. The absorption at 590 nm was measured with a microplate reader (SpectraMax, Molecular Device, San Diego, CA) to quantify cell numbers. The proportion of cells was normalized to that of untreated cells and expressed as mean±standard error of the mean (SEM) (n=6). The half-maximal inhibitory concentration (IC50) values were calculated by a sigmoidal dose-response (variable slope) curve-fitting using GraphPad Prism software.

[7] = system: PDAC cells; experiment: Seahorse mito-stress test (oxygen consumption rate); type: cell-based; conditions: 4-hour treatments, Seahorse XF24e
[8] = system: BXPC-3; experiment: MTT cytotoxicity, pancreatic cancer cell line BXPC-3; type: cell-based
Experimental: as §2

[9] = system: PDAC cells; experiment: Glycolytic ratio, YSI metabolic analyzer; type: cell-based; conditions: 30 μM, 24 hours
Experimental: The glycolytic ratio was obtained using a YSI metabolic analyzer after treatments with phenformin (30 μM) or Re-Phen (30 μM) for 24 hours. Wells with culture media but without cells were used for baseline reading. Data are presented as mean±SD (n=3). *p<0.05; **p<0.01.
as §1

[10] = log P from octanol and PBS pH 7.4; type: physicochemical

Structure (SMILES) | AMPK activation [1] | Ki67+ proliferating cells in tumors (IHC) compared to vehicle [2] | change in body weight [2] | tumor size compared to vehicle control [2] | ratio of NADH to total NADt [3] | mitochondrial membrane potential [4] | IC50 [5] [mM] | fold higher cytotoxicity against MiaPaca-2 PDAC cells ([5]; Re-Phen versus phenformin, Table 1) | IC50 [6] [µM] | mitochondria respiration (OCR) [7] | IC50 ([8]; 72 h) [µM] | compensatory glycolysis (glycolytic ratio, lactate produced to glucose consumed) [9] | log P ([10]; octanol and phosphate-buffered saline (PBS) at pH 7.4) | IC50 ([5]; Homo sapiens, MIA PaCa-2) [mM] | IC50 ([6]; Mus musculus, Pancreatic cancer cell) [µM] | IC50 ([8]; Homo sapiens, BXPC-3, 72 h) [µM] | logP ([10]; pH 7.4)
N=C(N)NC(=N)NCCc1ccccc1.[C-]#[O+].[C-]#[O+].[C-]#[O+].[Re+] [Re-Phen] | activated AMPK | markedly reduced Ki67+ proliferating cells | No significant change in body weight | significantly reduced tumor size | increased the ratio of NADH to total NADt; also recorded: significantly increased NADH/NADt ratio | reduced mitochondrial membrane potential | 0.039 | about 35 fold | 230 | suppressed mitochondria respiration | 340 | increased compensatory glycolysis | 1.07±0.08 |  |  |  | 
[H]/N=C(/N)N/C(=N/[H])NCCc1ccccc1 [Phenformin, N-phenylethyl biguanide, reference compound] | activated AMPK | markedly reduced Ki67+ proliferating cells | No significant change in body weight |  | increased the ratio of NADH to total NADt; also recorded: significantly increased NADH/NADt ratio | reduced mitochondrial membrane potential |  |  |  | suppressed mitochondria respiration |  | increased compensatory glycolysis |  | 13.6 | 750 | 1100 | -0.72 ± 0.02
